Reference: patent US10525055B2, “Opioid receptor antagonist prodrugs” (Nirsum Laboratories, Inc., priority 2017, dated 2020)

Columns and labels:
[1] = Solubility determination in oil (cottonseed oil, sesame oil); conditions: Sesame oil; volumetric flask method; heating 60 °C, obs. 25 °C
Description: A known amount of test substance (˜40 mg) was weighed into the vial, 100 μL of oil was added and heated to 60° C. and then system was slurried to reach equilibrium. […] Extra oil was added into the vial once compound precipitated out and then the system was re-equilibrated at 1000 rpm at room temperature (25° C.). Final concentration was determined by HPLC method as described below in Table 6a and 6b.

[2] = Dog pharmacokinetic studies, deep intramuscular; assay type: in vivo, Beagle dogs; conditions: dog IM, 48 mg/kg, Sesame oil + 1% Benzyl Alcohol
Description: The purpose of this study is to determine the pharmacokinetics of test compounds in plasma, following deep intramuscular administration to Beagle dogs (n=3, unless otherwise specified).
(§1) The dose formulation (concentration−400 mg base equivalents/ml in sesame oil+1% benzyl alcohol, unless otherwise specified) was administered via deep intramuscularly (unless otherwise specified). The injection vehicle was also dosed via deep intramuscular route (unless otherwise specified) on contralateral site of each animal at study initiation. The animals were sedated with Propofol at 6 mg/kg via IV administration. Following sedation hair was carefully removed from around the injection site and the area gently cleaned. Care will be taken to avoid irritating skin during shaving and cleaning the injection site. Then dogs will be dosed with deep IM administration. At least 2.5 cm depth from the surface into the central aspect of the quadriceps or biceps femoris muscle, by angling the needle toward the femur. If the needle hits the femur, simply draws back slightly and then inject. The dose volume will be determined by the animals' body weight collected on the morning of dosing day. For repeated administration, the injection sites may be rotated to minimize tissue injury.
Blood samples were collected from a peripheral vessel from restrained, non-sedated animals per sampling time point.
Approximately 0.8 mL blood will be collected at each time point.
Each collected blood sample was centrifuged for 4 minutes at 4° C. and 10000 rpm for plasma collection. Plasma was collected and transferred into a pre-labeled PP tube in dry ice at each time point and precipitated immediately using ACN at a ratio of 1:4 (plasma:ACN). Centrifuged again (10 minutes, 12000 rpm) and obtain the supernatant.
After terminal collection, all supernatant was stored at approximately −80° C. F until bioanalysis.
LC-MS/MS methods for the quantitative determination of test compound in biological matrix were developed. […] The sample analysis was performed concurrently with a set of calibration standards and two sets of QC samples using the LC-MS/MS method.
Plasma concentration versus time data was analyzed by non-compartmental approaches using the Phoenix WinNonlin 6.3 software program. Cmax, Tmax, T1/2, AUC(0-t), AUC(0-inf), MRT(0-t), MRT(0-inf) and graphs of plasma concentration versus time profile were prepared.

[3] = Dog clinical observations after intramuscular dosing; assay type: in vivo, Beagle dogs
Description: Weight monitoring was done every week.
as §1

DOR = target: T1, DOR (Homo sapiens, UniProt P41143); assay: Opioid receptor binding assay, DOR ([3H]-DADLE); conditions: for %Inh@MaxDose: DOR
T1 construct: expressed in transfected cells; membranes prepared from them
T1 sequence (P41143 whole entry): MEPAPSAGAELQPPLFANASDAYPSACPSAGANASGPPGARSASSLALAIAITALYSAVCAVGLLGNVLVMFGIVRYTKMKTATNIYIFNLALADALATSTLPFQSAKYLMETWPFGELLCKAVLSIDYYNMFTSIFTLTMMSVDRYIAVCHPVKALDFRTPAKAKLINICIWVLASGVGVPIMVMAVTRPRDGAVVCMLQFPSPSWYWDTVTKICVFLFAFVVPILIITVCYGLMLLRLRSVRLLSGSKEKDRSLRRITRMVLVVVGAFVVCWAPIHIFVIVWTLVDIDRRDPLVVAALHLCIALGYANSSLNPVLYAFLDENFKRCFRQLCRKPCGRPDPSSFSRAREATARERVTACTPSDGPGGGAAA

Compound: C=C1CC[C@@]2(O)C3Cc4ccc(OCOC(=O)OCCCCCCCCCCC)c5c4[C@@]2(CCN3CC2CC2)[C@H]1O5 [Compound 5, (((4aS,7aS,12bS)-3-(cyclopropylmethyl)-4a-hydroxy-7-methylene-2,3,4,4a,5,6,7,7a-octahydro-1H-4,12-methanobenzofuro[3,2-e]isoquinolin-9-yl)oxy)methyl undecyl carbonate]
- Solubility by volumetric flask method: Sesame oil [1]: >400.6 mg/mL
- AUC0-inf (ng · h/mL) prodrug [2]: 3869 ng·h/mL
- Half-life t1/2 (hour) prodrug [2]: 70.9 h
- BT (clinical observations, R-TA) ([3]; dog D1001, 48 mg/kg, 264 hr): BT:38.6 °C
- BT (clinical observations, R-TA) ([3]; dog D1001, 48 mg/kg, 288 hr): BT:38.6 °C
- BT (clinical observations, R-TA) ([3]; dog D1001, 48 mg/kg, 312 hr): BT:38.0 °C
- BT (clinical observations, R-TA) ([3]; dog D1001, 48 mg/kg, 336 hr): BT:38.4 °C
- BT (clinical observations, R-TA) ([3]; dog D1001, 48 mg/kg, 360 hr): BT:38.1 °C
- BT (clinical observations, R-TA) ([3]; dog D1001, 48 mg/kg, 432 hr): BT:38.0 °C
- BT (clinical observations, R-TA) ([3]; dog D1001, 48 mg/kg, 480 hr): BT:38.0 °C
- BT (clinical observations, R-TA) ([3]; dog D1001, 48 mg/kg, 528 hr): BT38.2 °C
- BT (clinical observations, R-TA) ([3]; dog D1001, 48 mg/kg, 552 hr): BT:38.4 °C
- BT (clinical observations, R-TA) ([3]; dog D1001, 48 mg/kg, 576 hr): BT:38.4 °C
- BT (clinical observations, R-TA) ([3]; dog D1001, 48 mg/kg, 600 hr): BT:38.3 °C
- BT (clinical observations, R-TA) ([3]; dog D1001, 48 mg/kg, 624 hr): BT:38.6 °C
- BT (clinical observations, R-TA) ([3]; dog D1001, 48 mg/kg, 648 hr): BT:38.3 °C
- BT (clinical observations, R-TA) ([3]; dog D1001, 48 mg/kg, 672 hr): BT:38.3 °C
- BT (clinical observations, R-TA) ([3]; dog D1001, 48 mg/kg, […]): BT:38.7 °C
- BT (clinical observations, R-TA) ([3]; dog D1002, 48 mg/kg, 264 hr): BT:39.5 °C
- BT (clinical observations, R-TA) ([3]; dog D1002, 48 mg/kg, 288 hr): BT:39.5 °C
- BT (clinical observations, R-TA) ([3]; dog D1002, 48 mg/kg, 312 hr): BT:38.5 °C
- BT (clinical observations, R-TA) ([3]; dog D1002, 48 mg/kg, 336 hr): BT:38.7 °C
- BT (clinical observations, R-TA) ([3]; dog D1002, 48 mg/kg, 360 hr): BT:39.1 °C
- BT (clinical observations, R-TA) ([3]; dog D1002, 48 mg/kg, 432 hr): BT:38.9 °C
- BT (clinical observations, R-TA) ([3]; dog D1002, 48 mg/kg, 456 hr): BT:38.9 °C
- BT (clinical observations, R-TA) ([3]; dog D1002, 48 mg/kg, 480 hr): BT:39.2 °C
- BT (clinical observations, R-TA) ([3]; dog D1002, 48 mg/kg, 504 hr): BT:38.7 °C
- BT (clinical observations, R-TA) ([3]; dog D1002, 48 mg/kg, 528 hr): BT:37.9 °C
- BT (clinical observations, R-TA) ([3]; dog D1002, 48 mg/kg, 552 hr): BT:39.2 °C
- BT (clinical observations, R-TA) ([3]; dog D1002, 48 mg/kg, 576 hr): BT:39.0 °C
- BT (clinical observations, R-TA) ([3]; dog D1002, 48 mg/kg, 600 hr): BT:38.6 °C
- BT (clinical observations, R-TA) ([3]; dog D1002, 48 mg/kg, 624 hr): BT:38.9 °C
- BT (clinical observations, R-TA) ([3]; dog D1002, 48 mg/kg, 648 hr): BT:38.5 °C
- BT (clinical observations, R-TA) ([3]; dog D1002, 48 mg/kg, 672 hr): BT:39.3 °C

Compound: CCCCCCCCCCCOC(=O)OCOc1ccc2c3c1O[C@H]1C(=O)CC[C@@]4(O)C(C2)N(CC2CC2)CC[C@]314 [Compound 4, (((4aS,7aR,12bS)-3-(cyclopropylmethyl)-4a-hydroxy-7-oxo-2,3,4,4a,5,6,7,7a-octahydro-1H-4,12-methanobenzofuro[3,2-e]isoquinolin-9-yl)oxy)methyl undecyl carbonate]
- Solubility by volumetric flask method: Sesame oil [1]: >400.4 mg/mL
- IC50 (DOR): > 10 µM
- %Inh@MaxDose (DOR; MaxDose 10000 nM): 43.2%
- AUC0-inf (ng · h/mL) prodrug [2]: 829 ng·h/mL

Compound: Oc1ccc2c3c1O[C@H]1c4[nH]c5ccccc5c4C[C@@]4(O)[C@@H](C2)N(CC2CC2)CC[C@]314 [Naltrindole, reference compound]
- %Inh@MaxDose (DOR; MaxDose 100 nM): 98.8%

Compound: C=C1CC[C@@]2(O)C3Cc4ccc(OC(=O)OCCCCCCCCCCC)c5c4[C@@]2(CCN3CC2CC2)[C@H]1O5 [Compound 3, (4aS,7aS,12bS)-3-(cyclopropylmethyl)-4a-hydroxy-7-methylene-2,3,4,4a,5,6,7,7a-octahydro-1H-4,12-methanobenzofuro[3,2-e]isoquinolin-9-yl undecyl carbonate]
- Solubility by volumetric flask method: Sesame oil [1]: >400.7 mg/mL
- AUC0-inf (ng · h/mL) prodrug [2]: 360 ng·h/mL
- Half-life t1/2 (hour) prodrug [2]: 63.1 h

Compound: C=C1CC[C@@]2(O)C3Cc4ccc(OCOC(=O)OCCCCCCCCCC)c5c4[C@@]2(CCN3CC2CC2)[C@H]1O5 [Compound 35, (((4aS,7aS,12bS)-3-(cyclopropylmethyl)-4a-hydroxy-7-methylene-2,3,4,4a,5,6,7,7a-octahydro-1H-4,12-methanobenzofuro[3,2-e]isoquinolin-9-yl)oxy)methyl decyl carbonate]
- Half-life t1/2 (hour) prodrug [2]: 70 h
- Clinical observations, R-TA ([3]; dog D1501, 48 mg/kg, 24 hr): Red spots at groin
- Clinical observations, R-TA ([3]; dog D1501, 48 mg/kg, 48 hr): Red spots at groin
- BT (clinical observations, R-TA) ([3]; dog D1501, 48 mg/kg, 72 hr): at groin/BT: 39.1 °C
- BT (clinical observations, R-TA) ([3]; dog D1501, 48 mg/kg, 96 hr): at groin/BT: 39.0 °C
- BT (clinical observations, R-TA) ([3]; dog D1501, 48 mg/kg, 120 hr): at groin/BT: 39.1 °C
- BT (clinical observations, R-TA) ([3]; dog D1501, 48 mg/kg, 144 hr): groin/BT: 38.7 °C
- BT (clinical observations, R-TA) ([3]; dog D1501, 48 mg/kg, 192 hr): groin/BT: 38.2 °C
- BT (clinical observations, R-TA) ([3]; dog D1501, 48 mg/kg, 216 hr): groin/BT: 38.6 °C
- BT (clinical observations, R-TA) ([3]; dog D1501, 48 mg/kg, 240 hr): groin/BT: 38.2 °C
- BT (clinical observations, R-TA) ([3]; dog D1501, 48 mg/kg, 264 hr): groin/BT: 38.0 °C
- BT (clinical observations, R-TA) ([3]; dog D1501, 48 mg/kg, 288 hr): groin/BT: 38.4 °C
- BT (clinical observations, R-TA) ([3]; dog D1501, 48 mg/kg, […]): groin/BT: 38.9 °C
- BT (clinical observations, R-TA) ([3]; dog D1502 (third dog column), 48 mg/kg, 72 hr): leg/BT: 39.3 °C
- BT (clinical observations, R-TA) ([3]; dog D1502 (third dog column), 48 mg/kg, 96 hr): leg/BT: 39.3 °C
- BT (clinical observations, R-TA) ([3]; dog D1502 (third dog column), 48 mg/kg, 120 hr): BT: 39.4 °C
- BT (clinical observations, R-TA) ([3]; dog D1502 (third dog column), 48 mg/kg, 144 hr): BT: 39.0 °C
- BT (clinical observations, R-TA) ([3]; dog D1502 (third dog column), 48 mg/kg, 192 hr): at calf/BT: 39.2 °C
- BT (clinical observations, R-TA) ([3]; dog D1502 (third dog column), 48 mg/kg, 216 hr): calf/BT: 39.2 °C
- BT (clinical observations, R-TA) ([3]; dog D1502 (third dog column), 48 mg/kg, 240 hr): calf/BT: 38.9 °C
- BT (clinical observations, R-TA) ([3]; dog D1502 (third dog column), 48 mg/kg, 264 hr): 6 * 6 cm/BT: 38.7 °C
- BT (clinical observations, R-TA) ([3]; dog D1502 (third dog column), 48 mg/kg, 288 hr): 6 * 6 cm/BT: 38.7 °C
- BT (clinical observations, R-TA) ([3]; dog D1502 (third dog column), 48 mg/kg, […]): at calf/BT: 39.3 °C
- BT (clinical observations, R-TA) ([3]; dog D1502, 48 mg/kg, 72 hr): red/BT: 39.6 °C
- BT (clinical observations, R-TA) ([3]; dog D1502, 48 mg/kg, 96 hr): red/BT: 38.9 °C
- BT (clinical observations, R-TA) ([3]; dog D1502, 48 mg/kg, 120 hr): red/BT: 39.6 °C
- BT (clinical observations, R-TA) ([3]; dog D1502, 48 mg/kg, 144 hr): redness/BT: 38.9 °C
- BT (clinical observations, R-TA) ([3]; dog D1502, 48 mg/kg, 192 hr): BT: 38.7 °C
- BT (clinical observations, R-TA) ([3]; dog D1502, 48 mg/kg, 216 hr): BT: 39.2 °C
- BT (clinical observations, R-TA) ([3]; dog D1502, 48 mg/kg, 240 hr): BT: 38.6 °C
- BT (clinical observations, R-TA) ([3]; dog D1502, 48 mg/kg, 264 hr): BT: 38.4 °C
- BT (clinical observations, R-TA) ([3]; dog D1502, 48 mg/kg, 288 hr): BT: 38.6 °C
- BT (clinical observations, R-TA) ([3]; dog D1502, 48 mg/kg, […]): redness/BT: 39.9 °C

Compound: C=C1CC[C@@]2(O)C3Cc4ccc(OCOC(=O)OCCCCCCCCCCCCCCCC)c5c4[C@@]2(CCN3CC2CC2)[C@H]1O5 [Compound 34, (((4aS,7aS,12bS)-3-(cyclopropylmethyl)-4a-hydroxy-7-methylene-2,3,4,4a,5,6,7,7a-octahydro-1H-4,12-methanobenzofuro[3,2-e]isoquinolin-9-yl)oxy)methyl hexadecyl carbonate]
- %Inh@MaxDose (DOR; MaxDose 10000 nM): 22.7%
